According to publication PMC9828493, “Design, Synthesis, and in Vitro Evaluation of 4‐(4‐Hydroxyphenyl)piperazine‐Based Compounds Targeting Tyrosinase” (Chemmedchem, 2022):
Several values for one entry are separate records, joined by “and”; a condition that tells them apart may be missing. Identical values can stand only once.

How the values were obtained:
[1] = biological target: T1, TYR from Agaricus bisporus (AbTYR) (Agaricus bisporus, UniProt C7FF04); experiment: Inhibition of diphenolase activity of AbTYR (L-DOPA as substrate); settings: IC50 [μM]±SD, inhibition of diphenolase activity of AbTYR, L-DOPA substrate, three replicates;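 further: absorbance measured spectrophotometrically with L-DOPA as substrate, inhibition expressed as percent relative to control sample, IC50 interpolated from dose-response curves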
Method: (§1) absorbance was measured after 60 or 1 min of incubation time in the reaction mixture containing
(§2) L-tyrosine or L-DOPA, respectively. The inhibitory activity was expressed as inhibition percentage
(§3) calculated by interpolation of the dose-response curves. Kojic acid [5-hydroxy-2-(hydroxymethyl)-
(§4) 4H-pyran-4-one], a fungal secondary metabolite used as skin whitening agent, was employed as a
(§5) positive standard (10–50 μM). A spectrophotometer (Agilent Cary 60 UV-Vis Spectrophotometer)
(§6) The inhibition kinetics on the tyrosinase were studied using Lineweaver-Burk double reciprocal
(§7) plots. The reaction mixture consisted of four different concentrations of the substrate L-DOPA
(§8) (0.6–5 mM), and mushroom tyrosinase in phosphate buffer (0.05 M, pH 6.8). Three different
(§9) concentrations were used for the analysis. Preincubation and measurement time were the same
(§10) as discussed in mushroom tyrosinase inhibition assay. The Michaelis-Menten constant (Km) and
(§11) maximal velocity (Vmax) of tyrosinase were determined by Lineweaver-Burk plots.

[2] = biological target: T1, TYR from Agaricus bisporus (AbTYR); experiment: Inhibition of monophenolase activity of AbTYR (L-Tyr as substrate); assay type: biochemical; set-up: purchased Sigma Chemical Co. (St. Louis, MO, USA); settings: 40 μM (Figure S69)
Method: Mushroom tyrosinase inhibition assay
6.8). […] Subsequently, 0.05 mL of
L-tyrosine or L-DOPA, respectively.
respect to control sample.
positive standard (10–50 μM).
was used for absorbance measurements.
Kinetic analysis of the tyrosinase inhibition

[3] = ABTS radical scavenging antioxidant assay; settings: mean ± SD of three independent experiments
Method: ABTS [2,20‐azinobis‐(3‐ethylbenzothiazoline‐6‐sulfonic acid)] assay was used to determine the total free radical‐scavenging capacity of compounds. 6‐hydroxy‐2,5,7,8‐tetramethylchromane‐2‐carboxylic acid (Trolox) was used as the reference antioxidant.[15]
The ABTS⋅^+ method is based on the capacity of an antioxidant to scavenge the free ABTS⋅^+. To produce this radical an aqueous mixture of 7 mM ABTS with 2.45 mM potassium persulfate was required.
The ABTS solution was kept in the dark, at room temperature, for 24 h before use. The ABTS⋅^+ mixture was diluted, and each compound (10 μL) was added to solution. After 1 min of incubation the absorbance was recorded at 734 nm. Afterwards the decrease in A734 was calculated and referred to the Trolox standard curve. Antioxidant activity was expressed as concentration of the compound to give a 50 % reduction in the original absorbance (EC50).

B16F10 cells = experiment: Cell viability assay (MTT); assay type: cell-based, Murine; settings: 48 h, until a concentration of 10 μM
Method: Murine melanoma B16F10 cells (CRL‐6475) were cultured as previous reported.[17]
3‐(4,5‐Dimethylthiazol‐2‐yl)‐2,5‐diphenyltetrazolium bromide (MTT) was used to measure the cells viability. Cells were seeded in 96‐well plates for 24 hours with a density of 5x10^3 for well. Cells were then treated for 48 h with compounds (ranging from 4 μM to 100 μM). After incubation at 37 °C and 5 % of CO2, 100 μL of MTT reagent were added to the cells and incubated 3 h at 37 °C. After adding DMSO the absorbance was determined at 560 nm. The amount of living cells in treated samples relative to untreated controls (100 %) provided the cell viability. The mean value and standard deviation (SD) were calculated from triplicate experiments.
different concentrations of compounds (4-100 μM) and their viability was evaluated by MTT assay. Data
represent mean ± SD of triplicate experiments.

[4] = system: tyrosinase activity in α‐MSH‐stimulated B16F10 cells; experiment: Tyrosinase zymography (L-DOPA staining) in α-MSH-stimulated B16F10 cells; assay type: cell-based, Murine; settings: Mus musculus, B16-F10; α-MSH (100 nM)-stimulated B16F10 cells, 48 h, 25 μM; read-out: inhibition of tyrosinase activity / melanogenesis
Method: ImageJ software was used to determine the intensity of bands.
A day after seeding the B16F10 cells (6×10^4 cells/mL) the culture medium was substituted by fresh one supplemented with 100 nM α‐MSH.
After incubation for 48 h, cells were washed and lysed using phosphate buffer (25 mM, pH 6.8) containing Triton X‐100 (1 %) and phenylmethyl‐sulfonyl fluoride (0.1 mM). Cellular lysates were centrifugated at 13000 rpm for 20 min at 4 °C. The protein content was determined by Bradford method and BSA was used as standard.
SDS‐polyacrylamide gel electrophoresis was used to resolve the protein extracts previously mixed with 10 mM Tris‐HCl buffer, pH 7.0, containing 1 % SDS, without mercaptoethanol.
After running, gel was rinsed in phosphate buffer (0.1 M, pH 7.0) and equilibrated for 30 min twice. […] Tyrosinase activity was visualized in the gel as dark melanin‐containing bands

[5] = biological target: T1, TYR from Agaricus bisporus (AbTYR); experiment: Kinetic analysis of AbTYR inhibition (Lineweaver-Burk plots, L-DOPA); settings: L-DOPA 0.6–5 mM, three inhibitor concentrations, phosphate buffer pH 6.8
Method: Kinetics studies were performed in presence of three different concentrations of selected inhibitors, L‐DOPA (0.6–5 mM) and AbTYR in phosphate buffer (0.05 M, pH 6.8).
as §1, §2, §3, §4, §5, §6, §7, §8, §9, §10, §11

T1 sequence (C7FF04 1-392 limits assumed): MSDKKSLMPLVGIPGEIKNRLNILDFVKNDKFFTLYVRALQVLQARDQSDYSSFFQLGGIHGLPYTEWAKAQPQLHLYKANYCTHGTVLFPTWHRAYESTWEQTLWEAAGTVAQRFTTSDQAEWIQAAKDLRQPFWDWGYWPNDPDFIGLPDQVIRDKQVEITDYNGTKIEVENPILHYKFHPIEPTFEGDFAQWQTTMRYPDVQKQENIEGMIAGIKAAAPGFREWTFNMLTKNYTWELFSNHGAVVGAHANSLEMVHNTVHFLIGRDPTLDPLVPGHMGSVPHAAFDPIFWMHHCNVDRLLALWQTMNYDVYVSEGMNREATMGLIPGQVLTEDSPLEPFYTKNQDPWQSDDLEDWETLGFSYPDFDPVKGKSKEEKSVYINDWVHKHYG

| SMILES | IC50 [1] | melting point | other results |
| --- | --- | --- | --- |
| COc1ccc(C(=O)N2CCN(c3ccc(O)cc3)CC2)cc1 [compound 23, [4‐(4‐Hydroxyphenyl)piperazin‐1‐yl](4‐methoxyphenyl)methanone] | 14.9 ± 0.7 µM | 177 to 178 °C | – |
| Nc1ccc(C(=O)N2CCN(c3ccc(O)cc3)CC2)cc1 [compound 34, (4‐(4‐Hydroxyphenyl)piperazin‐1‐yl)(4‐aminophenyl)methanone] | 43.9 ± 3.4 µM | 94 to 95 °C | – |
| O=C(c1ccc([N+](=O)[O-])cc1)N1CCN(c2ccc(O)cc2)CC1 [compound 30, (4‐(4‐Hydroxyphenyl)piperazin‐1‐yl)(4‐nitrophenyl)methanone] | 23.2 ± 1.5 µM | 157 to 158 °C | – |
| COc1ccc(C(=O)N2CCN(c3ccc(O)cc3)CC2)c(OC)c1 [compound 24, [4‐(4‐Hydroxyphenyl)piperazin‐1‐yl](2,4‐dimethoxyphenyl)methanone] | 16.7 ± 2 µM | – | – |
| O=C(c1ccc(F)cc1F)N1CCN(c2ccc(O)cc2)CC1 [compound 25, (4‐(4‐Hydroxyphenyl)piperazin‐1‐yl)(2,4‐difluorophenyl)methanone] | 17.5 ± 1.3 µM | 180 to 181 °C | – |
| O=C(c1ccc(Cl)cc1)N1CCN(c2ccc(O)cc2)CC1 [compound 9, (4‐(4‐Hydroxyphenyl)piperazin‐1‐yl)(4‐chlorophenyl)methanone] | 8.9 ± 0.9 µM | – | – |
| O=C(c1ccccc1C(F)(F)F)N1CCN(c2ccc(O)cc2)CC1 [compound 17, (4‐(4‐Hydroxyphenyl)piperazin‐1‐yl)(2‐(trifluoromethyl)phenyl)methanone] | 4.6 ± 0.3 µM | 152 to 153 °C | inhibitory effect on monophenolase activity of AbTYR [2]: active inhibitors; EC50 [3]: 9 ± 0.9 µM; cytotoxic effect (MTT) (B16F10 cells): no cytotoxic effect |
| O=C(c1ccccc1Br)N1CCN(c2ccc(O)cc2)CC1 [compound 11, (4‐(4‐Hydroxyphenyl)piperazin‐1‐yl)(2‐bromophenyl)methanone] | < 5 µM and 4.5 µM | 180 to 181 °C | inhibitory effect on monophenolase activity of AbTYR [2]: active inhibitors; EC50 [3]: 13.2 ± 1.1 µM; cytotoxic effect (MTT) (B16F10 cells): no cytotoxic effect |
| O=C(c1ccccc1[N+](=O)[O-])N1CCN(c2ccc(O)cc2)CC1 [compound 28, (4‐(4‐hydroxyphenyl)piperazin‐1‐yl)(2‐nitrophenyl)methanone] | 7.4 ± 0.7 µM | 184 to 185 °C | – |
| O=C(c1ccccc1)N1CCN(c2ccc(O)cc2)CC1 [compound 2, (4‐(4‐Hydroxyphenyl)piperazin‐1‐yl)(phenyl)methanone] | 73.2 ± 3.5 µM | – | – |
| Cc1ccc(C(=O)N2CCN(c3ccc(O)cc3)CC2)cc1 [compound 16, [4‐(4‐Hydroxyphenyl)piperazin‐1‐yl](4‐methylphenyl)methanone] | 34.4 ± 0.5 µM | 162 to 163 °C | – |
| O=C(c1cccc(C(F)(F)F)c1)N1CCN(c2ccc(O)cc2)CC1 [compound 18, (4‐(4‐Hydroxyphenyl)piperazin‐1‐yl)(3‐(trifluoromethyl)phenyl)methanone] | 5.5 ± 0.2 µM | 127 to 128 °C | – |
| O=C(c1ccccc1Cl)N1CCN(c2ccc(O)cc2)CC1 [compound 7, (4‐(4‐Hydroxyphenyl)piperazin‐1‐yl)(2‐chlorophenyl)methanone] | < 5 µM and 2.6 µM | 169 to 170 °C | inhibitory effect on monophenolase activity of AbTYR [2]: active inhibitors; EC50 [3]: 13.2 ± 0.5 µM; cytotoxic effect (MTT) (B16F10 cells): no cytotoxic effect |
| O=C(c1ccc(Br)cc1Br)N1CCN(c2ccc(O)cc2)CC1 [compound 26, (4‐(4‐Hydroxyphenyl)piperazin‐1‐yl)(2,4‐dibromophenyl)methanone] | 9.5 ± 0.3 µM | 176 to 177 °C | – |
| COc1cccc(C(=O)N2CCN(c3ccc(O)cc3)CC2)c1 [compound 22, [4‐(4‐Hydroxyphenyl)piperazin‐1‐yl](3‐methoxyphenyl)methanone] | 9.8 ± 0.4 µM | – | – |
| Nc1ccccc1C(=O)N1CCN(c2ccc(O)cc2)CC1 [compound 32, (4‐(4‐Hydroxyphenyl)piperazin‐1‐yl)(2‐aminophenyl)methanone] | 66.4 ± 2.1 µM | – | – |
| Cc1ccccc1C(=O)N1CCN(c2ccc(O)cc2)CC1 [compound 14, [4‐(4‐Hydroxyphenyl)piperazin‐1‐yl](2‐methylphenyl)methanone] | 29.9 ± 2 µM | 127 to 128 °C | – |

| SMILES | IC50 [1] | melting point | other results |
| --- | --- | --- | --- |
| O=C(c1cccc(Br)c1)N1CCN(c2ccc(O)cc2)CC1 [compound 12, (4‐(4‐Hydroxyphenyl)piperazin‐1‐yl)(3‐bromophenyl)methanone] | 16.4 ± 1.9 µM | – | – |
| O=C(c1ccc(-c2ccccc2)cc1)N1CCN(c2ccc(O)cc2)CC1 [compound 3, (4‐(4‐Hydroxyphenyl)piperazin‐1‐yl)(biphenyl‐4‐yl)methanone] | 128 ± 4.1 µM | – | – |
| O=c1cc(CO)occ1O [KA, kojic acid, reference compound] | – | – | inhibition at 25 µM [4]: 17% |
| O=C(c1cccc([N+](=O)[O-])c1)N1CCN(c2ccc(O)cc2)CC1 [compound 29, (4‐(4‐Hydroxyphenyl)piperazin‐1‐yl)(3‐nitrophenyl)methanone] | 21.8 ± 1.2 µM | – | – |
| O=C(c1ccc(C(F)(F)F)cc1)N1CCN(c2ccc(O)cc2)CC1 [compound 19, (4‐(4‐Hydroxyphenyl)piperazin‐1‐yl)(4‐(trifluoromethyl)phenyl)methanone] | 35.1 ± 0.5 µM | 201 to 202 °C | – |
| O=C(c1ccc(C(F)(F)F)cc1C(F)(F)F)N1CCN(c2ccc(O)cc2)CC1 [compound 20, (4‐(4‐Hydroxyphenyl)piperazin‐1‐yl)(2,4‐bis(trifluoromethyl)phenyl)methanone] | 18.2 ± 2.4 µM | 194 to 195 °C | – |
| Nc1cccc(C(=O)N2CCN(c3ccc(O)cc3)CC2)c1 [compound 33, (4‐(4‐Hydroxyphenyl)piperazin‐1‐yl)(3‐aminophenyl)methanone] | 35.7 ± 1.05 µM | 95 to 96 °C | – |
| O=C(c1ccc(Br)cc1)N1CCN(c2ccc(O)cc2)CC1 [compound 13, (4‐(4‐Hydroxyphenyl)piperazin‐1‐yl)(4‐bromophenyl)methanone] | 39.6 ± 0.9 µM | 190 to 191 °C | – |
| Cc1ccc(C(=O)N2CCN(c3ccc(O)cc3)CC2)c(C)c1 [compound 27, [4‐(4‐Hydroxyphenyl)piperazin‐1‐yl](2,4‐dimethylphenyl)methanone] | 33.7 ± 0.7 µM | 164 to 165 °C | – |
| O=C(c1cccc(Cl)c1)N1CCN(c2ccc(O)cc2)CC1 [compound 8, (4‐(4‐Hydroxyphenyl)piperazin‐1‐yl)(3‐chlorophenyl)methanone] | 9 ± 1 µM | 138 to 139 °C | – |
| O=C(c1ccccc1F)N1CCN(c2ccc(O)cc2)CC1 [compound 4, (4‐(4‐Hydroxyphenyl)piperazin‐1‐yl)(2‐fluorophenyl)methanone] | 15.2 ± 0.9 µM | 142 to 143 °C | – |
| O=C(c1ccc([N+](=O)[O-])cc1[N+](=O)[O-])N1CCN(c2ccc(O)cc2)CC1 [compound 31, (4‐(4‐Hydroxyphenyl)piperazin‐1‐yl)(2,4‐dinitrophenyl)methanone] | 7.6 ± 0.05 µM | 225 to 226 °C | – |
| Cc1cccc(C(=O)N2CCN(c3ccc(O)cc3)CC2)c1 [compound 15, [4‐(4‐Hydroxyphenyl)piperazin‐1‐yl](3‐methylphenyl)methanone] | 31.7 ± 0.5 µM | 155 to 156 °C | – |
| Nc1ccc(C(=O)N2CCN(c3ccc(O)cc3)CC2)c(N)c1 [compound 35, (4‐(4‐Hydroxyphenyl)piperazin‐1‐yl)(2,4‐diaminophenyl)methanone] | 82.4 ± 1.1 µM | 80 to 81 °C | – |
| O=C(c1cccc(F)c1)N1CCN(c2ccc(O)cc2)CC1 [compound 5, (4‐(4‐Hydroxyphenyl)piperazin‐1‐yl)(3‐fluorophenyl)methanone] | 22.6 ± 1.3 µM | 145 to 146 °C | – |
| Oc1ccc(N2CCNCC2)cc1 [compound 1, 4‐(1‐piperazinyl)phenol] | 28.9 ± 4.9 µM | – | mechanism of inhibition of AbTYR [5]: competitive inhibitor |
